Residues, ends and D or L forms follow the SMILES beside them.
How the values were obtained:
hind limb casted mice = assay: Hind limb immobilization (casting) induced skeletal muscle atrophy; type: in vivo, mouse
Method: 2. […] Casted mice will receive an i.p. injection of saline vehicle (0.3 mL), peptide conjugate, aromatic-cationic peptide, SPN10, or SPN10 with aromatic-cationic peptides. A control group of untreated mice will be also used in this experiment.
Subjects will receive s.c. injections of saline vehicle (0.3 mL) or the peptide conjugate, aromatic-cationic peptide or SPN10 (alone or in combination with aromatic-cationic peptides) (1.5 mg/kg for the peptide conjugate and equivalent molar doses of aromatic-cationic peptide and/or SPN10 based on concentration of the aromatic-cationic peptide or SPN10 administered in the peptide conjugate group) administered once daily during the immobilization period.
Immobilization. Mice will be anesthetized with gaseous isoflurane (3% induction, 0.5-2.5%) maintenance). Anesthetized animals will be cast-immobilized bilaterally with the ankle joint in the plantar-flexed position to induce maximal atrophy of the soleus and plantaris muscle. Both hind limbs and the caudal fourth of the body will be encompassed by a plaster cast. A thin layer of padding will be placed underneath the cast in order to prevent abrasions. In addition, to prevent the animals from chewing on the cast, one strip of fiberglass material will be applied over the plaster. The mice will be monitored on a daily basis for chewed plaster, abrasions, venous occlusion, and problems with ambulation.
Preparation of permeabilized muscle fibers. Permeabilized muscle fibers will be prepared as previously described. Korshunov, et al., FEBS Lett 416:15-18, 1997; Tonkonogi, et al., Pfliigers Arch 446:261-269, 2003. Briefly, the muscle will be trimmed of connective tissue and cut down to fiber bundles (4-8 mg wet wt). Under a microscope and using a pair of extra-sharp forceps, the muscle fibers will be gently separated in ice-cold buffer X containing 60 mM K-MES, 35 mM KCl, 7.23 mM K2EGTA, 2.77 mM CaK2EGTA, 20 mM imidazole, 0.5 mM DTT, 20 mM taurine, 5.7 mM ATP, 15 mM PCr, and 6.56 mM MgCl2·6 H2O (pH 7.1, 295 mosmol/kg H2O) to maximize surface area of the fiber bundle. To permeabilize the myofibers, each fiber bundle will be incubated in ice-cold buffer X containing 50 μg/mL saponin on a rotator for 30 minutes at 4° C. The permeabilized bundles will be washed in ice-cold buffer Z, containing 110 mM K-MES, 35 mM KCl, 1 mM EGTA, 5 mM K2HPO4, and 3 mM MgCl2, 0.005 mM glutamate, and 0.02 mM malate and 0.5 mg/mL BSA, pH 7.1.
Mitochondrial respiration in permeabilized fibers. Respiration will be measured polarographically in a respiration chamber maintained at 37° C. (Hansatech Instruments, United Kingdom). After the respiration chamber will be calibrated, permeabilized fiber bundles will be incubated with 1 mL of respiration buffer Z containing 20 mM creatine to saturate creatine kinase (Saks, et al., Mol. Cell Biochem. 184:81-100, 1998; Walsh, et al., J. Physiol. 537:971-978,2001). Flux through complex I will be measured using 5 mM pyruvate and 2 mM malate. The maximal respiration (state 3), defined as the rate of respiration in the presence of ADP, will be initiated by adding 0.25 mM ADP to the respiration chamber. Basal respiration (state 4) will be determined in the presence of 10 µg/mL oligomycin to inhibit ATP synthesis. The respiratory control ratio (RCR) will be calculated by dividing state 3 by state 4 respiration.
Mitochondrial ROS production. Mitochondrial ROS production will be determined using Amplex™ Red (Molecular Probes, Eugene, OR, U.S.A.). The assay will be performed at 37° C. in 96-well plates using succinate as the substrate. Superoxide dismutase (SOD) will be added at 40 units/mL to convert all superoxide into H2O2. Resorufin formation (Amplex™ Red oxidation by H2O2) will be monitored at an excitation wavelength of 545 nm and an emission wavelength of 590 nm using a multi-well plate reader fluorometer (SpectraMax, Molecular Devices, Sunnyvale, CA, U.S.A.). […]

N2A cells = assay: Example 26: mitochondrial membrane potential and ROS accumulation after t-BHP (TMRM, DCF); type: cell-based; settings: 0.1 mM t-BHP, 6 hours
Method: N2A cells cultured in a glass dish will be treated with 0.1 mM t-BHP alone or in the presence of peptide conjugates (1 nM); aromatic-cationic peptides (an equivalent molar dose of aromatic-cationic peptide based on the concentration of the aromatic-cationic peptide administered in the peptide conjugate treatment group); SPN10(s) (an equivalent molar dose of SPN10 based on the concentration of SPN10 administered in the peptide conjugate treatment group) or SPN10(s) in combination with aromatic-cationic peptides (e.g., an equivalent molar dose of SPN10 based on the concentration of SPN10 administered in the peptide conjugate treatment group and an equivalent molar dose of aromatic-cationic peptide based on the concentration of aromatic-cationic peptide administered in the peptide conjugate treatment group) for 6 hours. Cells will then be loaded with 10 μM dichlorofluorescin (DCF) (ex/em=485/530) for 30 minutes at 37° C., 5% CO2. Cells will be washed 3 times with HBSS, stained with 20 nM of Mitotracker TMRM (ex/em=550/575 nm) for 15 minutes at 37° C., and examined by confocal laser scanning microscopy.

mitochondrial aconitase = assay: Example 53: mitochondrial aconitase activity in burn injury; settings: mouse, in vivo
From the text: Murine subjects will be subjected to burn injury or sham and administered peptide conjugates, aromatic-cationic peptides, SPN10(s) alone or in combination with aromatic-cationic peptides, or control vehicle as described above. Mitochondria will be isolated from burned and control tissues and mitochondrial aconitase activity assessed using a commercially available kit.

For `N=C(N)NCCC[C@H](NC(=O)[C@@H](N)Cc1c[nH]c2ccccc12)C(=O)N[C@@H](Cc1c[nH]c2ccccc12)C(=O)N[C@@H](CCCCN)C(N)=O` [SPN10, H-L-Trp-L-Arg-L-Trp-L-Lys-NH2] (H-WRWK-NH2), the “oxidative damage in soleus muscle, lipid peroxidation via 4-hydroxynonenal (4-HNE)” value (hind limb casted mice; casting) was “overcome”, the “protease activity in the soleus muscle” value (hind limb casted mice; casting) was “attenuated or prevented” and the “increase in H2O2 production by mitochondria isolated from soleus muscle” value (hind limb casted mice; casting for 7 days) was “prevented”. For the same molecule, the “decrease in soleus muscle weight and mitochondrial state 3 respiration” value (hind limb casted mice; hind limb casting for 7 days) was “reversed”, the “calpain-1, caspase-3 and caspase-12 proteolytic degradation of muscle” value (hind limb casted mice; mouse, in vivo) was “prevented” and the “oxidative damage and associated muscle weakness induced by hind limb immobilization” value (hind limb casted mice; mouse, in vivo) was “prevent”. The “ROS accumulation (DCF)” value (N2A cells) was “reduce ROS accumulation”, the “mitochondrial depolarization (TMRM)” value (N2A cells) was “prevent mitochondrial depolarization” and the “mitochondrial aconitase activity after burn injury” value (mitochondrial aconitase) was “reduce mitochondrial aconitase activity to sham control levels”.

— patent US20240108740A1, “THERAPEUTIC COMPOSITIONS INCLUDING SPN10 AND USES THEREOF” (Stealth BioTherapeutics Inc., priority 2022, published 2024)
